Data on six compounds can be found in patent US8487104B2, “KAT II inhibitors” (Pfizer Inc., priority 2010, dated 2013).

Counter-ions that a name gives are not always drawn. Like-named read-outs stand apart in the source and are kept apart here.

One data set concerns the target human KATII enzyme (Homo sapiens, UniProt Q8N5Z0). The data set can be described thus: KATII Kinetic Assay (kinact/KI determination). It counts as biochemical. As to conditions: read-out: hKATII kinact/KI. How it is done: The compounds of the present invention are irreversible inhibitors of KATII. Potency of irreversible inhibitors is best characterized by kinact/KI (See Copeland, R. A.; “Evaluation of Enzyme Inhibitors in Drug Discovery,” Wiley, 2005).
Test compounds were dissolved in 100% DMSO and diluted to the required concentrations in 100% DMSO. An additional aqueous dilution was made so that the compound at 3× final concentration was 1.0% DMSO in the assay specific buffer. Compounds were tested at 11 concentrations. Final DMSO concentrations in the assay plate were equal to 0.33%.
KATII enzyme activity was followed by measuring the loss of absorbance of the L-KYN substrate at an absorbance wavelength of 370 nm. The KATII assays were run in a 384 well format at a final volume of 30 μL using 150 mM Tris Acetate buffer (pH7.0), 1 mM L-KYN,1 mM α-ketoglutaric acid, 70 μM PLP, 0.1% BGG and either 30 nM human KATII enzyme or 5 nM rat KATII enzyme KATII enzyme. Compound was diluted in 100% DMSO and spotted prior to the addition of the other reagents. Enzyme was always added last. Assay plates were sealed around the edges with tape and immediately read on a SpectraMax plate reader at an absorbance wavelength of 370 nm. The SpectraMax plate reader was set up to read every 5 min for 16 hours.
The following steps are taken to ensure consistent production of kinetic read data: • 1. A 10 μL aliquot of the compound dilutions (described above in compound preparation) was added to the assay plate by hand followed by a quick spin to ensure compound was collected at bottom of well. • 2. A 10 μL aliquot of substrate mix containing the L-KYN, a-ketoglutaric acid and PLP was then added to the assay plate via a Multidrop instrument. • 3. Finally, a 10 μL aliquot of a 3× concentration of enzyme stock soluton was added last to initiate the reaction via a Multidrop instrument. • 4. The microplate lid was placed onto the assay plate and taped to seal in humidity, and the assay plate was put into the SpectraMax reader. A quick vibration on the plate platform was done to ensure mixing, and the absorbance was read (wavelength of 370 nm) every 5 min over 16 h at room temperature. Determination of Potencies (kinact/Kl Values)
The direct substrate absorbance loss assay described above was performed for the determination of potencies (kinact/Kl values). The overall potency, kinact/K1 values, were determined using the general approach described by M. Mileni et al., Proc. Natl. Acad. Sci. USA 2008, 105 12820-12824 and K. Ahn et al. Chem. Biol. 2009, 16, 411-420. Reaction progress curves (decrease in A370 nm with time) were obtained in the presence of eleven concentrations of inhibitor with top dose at […]. A null inhibitor control is always included. Absorbance read data were collected for 16 hours at 5 minute intervals. […] Each progress curve was fit to a one phase exponential decay model (equation 1) to determine kobserved (kobs) values at each inhibitor concentration, where At is absorbance at time t, A0 is the absorbance at t=infinite, A1 is a total absorbance change (the absorbance difference between t=0 and t=infinite), and kobs is the first order rate constant for enzyme inactivation. […] When [I]<<K1, equation 2 is simplified to equation 3, where the kinact/Kl is calculated from the slope, kinact/[Kl(1+[S]/Km)], which is obtained from the kobs vs [I] linear regression fit. […]

A further data set concerns human hepatocytes. In words: Human Hepatocyte Assay (HHEP). The data set is classed as in vitro ADME. Conditions: 1 μM test compound, 0.5 million viable cells/mL.
Data set [1] addresses human KAT II (hKAT II) enzyme (Homo sapiens, UniProt Q8N5Z0). In words: Human KAT II Inhibition Spectra Assay. The data set is classed as biochemical. Here is the method: Human KAT II Inhibition Spectra Assay Formation of kynurenic acid (KYNA) is indirectly assessed by a decrease in light absorbance at 370 nm (OD370) as the L-kynurenine (KYN) substrate is converted by the human KAT II (hKAT II) enzyme into KYNA. An inhibitor would therefore inhibit the decrease in OD370. The protocol was performed by placing the following reagents into a Costar 384 well black plate (30 μL total assay volume/well): • 10 μL of 3× concentrated compound; • 10 μL of 3× concentrated substrate mix (BGG (Sigma G-5009); 3 mM L-Kynurenine in 150 mM Tris Acetate (Sigma K3750); 3 mM α-ketoglutaric acid in 150 mM Tris Acetate (Sigma K2010); and 210 μM pyridoxal 5-phosphate (PLP) in 150 mM Tris Acetate (Sigma 9255)); and • 10 μL of 3× concentrated enzyme (15 nM enzyme in 150 mM Tris Acetate with 0.3% bovine serum). Plates were sealed and incubated at 37° C. for 15-20 h before reading OD370 on a SpectraMax Plus plate reader. IC50s were generated by comparing the efficacy of compounds across a concentration range to inhibit a reduction in the OD370 value relative to assay wells with DMSO added in place of concentrated compound. Biological data for the Examples may be found Tables 1 and 2.

Data set [2] is described as follows: Reactive Metabolite Assay. The data set is classed as in vitro ADME. Here is the method: [formula] Reactive Metabolite Assay Protocol Metabolite activity in Table 2 is measured using a reactive metabolite assay protocol as described in Reactive Metabolite assay protocol: See J. R. Soglia et al., J. Pharm. Biomed. Anal. 2004, 36, 105-116.
Data set [3] in a line: Pharmacokinetics Studies in Dog. The data set is classed as in vivo. Also noted: AUC/dose: unit not given beside the values. As to conditions: dogs; for AUC / C0 / clearance / half-life / Cmax: male, beagle, dog, plasma. Here is the method: Pharmacokinetics Studies in Dog Test substances (Examples 2-3) were administered by oral gavage or IV administration to groups of two dogs. The two male dogs were beagles obtained from Marshal Farms, weighing from about 9 to about 12 kg at start of treatment and ranging in age between approximately 4 to approximately 6 years. Blood samples were taken times of 0.25, 0.5, 1, 2, 4, 7, and 24 h after administration and submitted to analysis for the drug substance using an LC-MS-MS assay. Pharmacokinetic parameters derived from the plasma analytical data were determined using Watson 7.2.003.

The mark [4] stands for this setting: IV administration, dose = 0.5 mg/kg.
Where [5] appears, read: oral administration, dose 5 mg/kg (Ex 3, 2), 2 mg/kg (Ex 5).
The mark [6] stands for this setting: OD370 readout, 37° C., 15-20 h incubation, read-out: hKATII IC50.

human KAT II (hKAT II) enzyme, sequence (Q8N5Z0 30-425): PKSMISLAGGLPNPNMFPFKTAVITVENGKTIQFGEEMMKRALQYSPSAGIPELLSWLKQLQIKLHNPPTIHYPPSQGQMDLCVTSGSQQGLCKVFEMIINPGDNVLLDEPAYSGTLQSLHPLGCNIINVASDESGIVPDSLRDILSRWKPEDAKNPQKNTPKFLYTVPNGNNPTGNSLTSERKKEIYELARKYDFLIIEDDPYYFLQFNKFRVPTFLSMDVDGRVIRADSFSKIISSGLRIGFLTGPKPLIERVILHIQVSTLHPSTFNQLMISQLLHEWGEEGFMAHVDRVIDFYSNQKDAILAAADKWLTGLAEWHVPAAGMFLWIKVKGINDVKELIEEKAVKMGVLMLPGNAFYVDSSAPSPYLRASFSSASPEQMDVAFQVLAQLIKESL
human KATII enzyme, sequence (Q8N5Z0 30-425): as above

Regarding `CC(C)Oc1ccc2c(c1)N(O)C(=O)[C@@H](N)C2` [Example 5, (3S)-3-Amino-1-hydroxy-7-isopropoxy-3,4-dihydroquinolin-2(1H)-one, HCl Salt], the kinact/KI on human KATII enzyme amounted to 17100 M⁻¹ s⁻¹. Moreover, in the data set with human hepatocytes, the “HHEP CLint, app” value is reported as 44.7 μL/min/million. Also, in data set [1], the IC50 (as a rule, the concentration needed to halve the response being measured) turned out to be 32 nM. Besides, in data set [2], the “Reactive Metabolite Formation” value was “Yes”. In data set [3] (setting [4]), the AUC/dose was 436; the AUC (as a rule, the area under the concentration-time curve, a measure of exposure) came out at 218 ng·h/mL; the C0 was 265 ng/mL; the clearance (in general, the volume of plasma or blood freed of the substance per unit of time) was determined as 38.7 mL/min/kg. In data set [3] (setting [4]), the half-life (in general, how long it takes for the measured level to halve) was 36 min. Moreover, in data set [3] (setting [5]), the AUC/dose was 9.3; the Cmax/dose is 9.8; the area under the curve (AUC) worked out at 18.6 ng·h/mL; the Cmax (in general, the peak of the concentration-time curve) stood at 19.6 ng/mL. In data set [3] (setting [5]), this compound showed a half-life of 27.6 min.
For `N#Cc1ccc2c(c1)N(O)C(=O)[C@@H](N)C2` [Example 1, (3S)-3-Amino-1-hydroxy-2-oxo-1,2,3,4-tetrahydroquinoline-7-carbonitrile, HCl Salt], the kinact/KI at human KATII enzyme is 46200 M⁻¹ s⁻¹. In the data set on human hepatocytes, the “HHEP CLint, app” value stood at 24.8 μL/min/million. Further, the IC50 in data set [1] (setting [6]) is 19 nM.
`COCCOc1ccc2c(c1)N(O)C(=O)[C@@H](N)C2` [Example 3, (3S)-3-Amino-1-hydroxy-7-(2-methoxyethoxy)-3,4-dihydroquinolin-2(1H)-one, HCl Salt]: on human KATII enzyme (30 nM human KATII enzyme, room temperature), the kinact/KI was 22300 M⁻¹ s⁻¹. Moreover, the “HHEP CLint, app” value in the data set with human hepatocytes came out at 30.1 μL/min/million. The IC50 in data set [1] (setting [6]) is 22 nM. In data set [2], the “Reactive Metabolite Formation” value was “No”. In data set [3] (setting [4]), this compound yielded an AUC/dose of 388, an AUC of 194 ng·h/mL, a C0 of 446 ng/mL and a clearance of 43.4 mL/min/kg. In data set [3] (setting [4]), the half-life was 54 min. In addition, in data set [3] (setting [5]), the AUC/dose was 31.2, the Cmax/dose is 39.6, the AUC stood at 156 ng·h/mL and the concentration peaked (Cmax) at 198 ng/mL. In addition, in data set [3] (setting [5]), the half-life was 63 min.
In the case of `N[C@H]1Cc2ccccc2N(O)C1=O` [Example 4, (3S)-3-Amino-1-hydroxy-3,4-dihydroquinolin-2(1H)-one], the kinact/KI on human KATII enzyme stood at 21500 M⁻¹ s⁻¹. In the data set on human hepatocytes, the “HHEP CLint, app” value is listed as 39.6 μL/min/million. Further, in data set [1] (setting [6]), the IC50 was 27 nM.
Consider `COC[C@H](C)Oc1ccc2c(c1)N(O)C(=O)[C@@H](N)C2` [Example 2, (3S)-3-Amino-1-hydroxy-7-[(1S)-2-methoxy-1-methylethoxy]-3,4-dihydroquinolin-2(1H)-one, HCl Salt], for which the kinact/KI at human KATII enzyme was determined as 25100 M⁻¹ s⁻¹. The “HHEP CLint, app” value in the data set on human hepatocytes is listed as 19.8 μL/min/million. For the same compound, the IC50 in data set [1] (setting [6]) is 18 nM. The “Reactive Metabolite Formation” value in data set [2] is reported as “No”. In addition, in data set [3] (setting [4]), the AUC/dose was 370, the area under the curve (AUC) amounted to 185 ng·h/mL, the C0 turned out to be 352 ng/mL and the clearance is 44.9 mL/min/kg. Further, in data set [3] (setting [4]), the half-life was 30 min. Also, in data set [3] (setting [5]), the AUC/dose is given as 39, the Cmax/dose is 46, the AUC was 195 ng·h/mL and the Cmax worked out at 229 ng/mL. In data set [3] (setting [5]), this compound showed a half-life of 137 min.
As to `N#Cc1cccc2c1N(O)C(=O)C(N)C2` (stereo not shown) [Example 6, 3-Amino-1-hydroxy-2-oxo-1,2,3,4-tetrahydroquinoline-8-carbonitrile, HCl Salt], the concentration for half-maximal inhibition (IC50) in data set [1] (setting [6]) was determined as 30 nM.
